Columns and labels:
Test in all cases: split-luciferase competition binding
PRKCE (human) = PRKCE (human) (UniProt Q02156); conditions: compound 10.0 µM
AURKC (human) = AURKC (human) (UniProt Q9UQB9); conditions: compound 10.0 µM
AURKA (human) = AURKA (human) (UniProt O14965); conditions: compound 10.0 µM
RPS6KA3 KD1 (human) = RPS6KA3 KD1 (human) (UniProt P51812); conditions: compound 10.0 µM
SGK2 (human) = SGK2 (human) (UniProt Q9HBY8); conditions: compound 10.0 µM
PRKCI (human) = PRKCI (human) (UniProt P41743); conditions: compound 10.0 µM
RPS6KA6 KD1 (human) = RPS6KA6 KD1 (human) (UniProt Q9UK32); conditions: compound 10.0 µM
Sequence of RPS6KA6 KD1 (human) (Q9UK32 whole entry, looked up): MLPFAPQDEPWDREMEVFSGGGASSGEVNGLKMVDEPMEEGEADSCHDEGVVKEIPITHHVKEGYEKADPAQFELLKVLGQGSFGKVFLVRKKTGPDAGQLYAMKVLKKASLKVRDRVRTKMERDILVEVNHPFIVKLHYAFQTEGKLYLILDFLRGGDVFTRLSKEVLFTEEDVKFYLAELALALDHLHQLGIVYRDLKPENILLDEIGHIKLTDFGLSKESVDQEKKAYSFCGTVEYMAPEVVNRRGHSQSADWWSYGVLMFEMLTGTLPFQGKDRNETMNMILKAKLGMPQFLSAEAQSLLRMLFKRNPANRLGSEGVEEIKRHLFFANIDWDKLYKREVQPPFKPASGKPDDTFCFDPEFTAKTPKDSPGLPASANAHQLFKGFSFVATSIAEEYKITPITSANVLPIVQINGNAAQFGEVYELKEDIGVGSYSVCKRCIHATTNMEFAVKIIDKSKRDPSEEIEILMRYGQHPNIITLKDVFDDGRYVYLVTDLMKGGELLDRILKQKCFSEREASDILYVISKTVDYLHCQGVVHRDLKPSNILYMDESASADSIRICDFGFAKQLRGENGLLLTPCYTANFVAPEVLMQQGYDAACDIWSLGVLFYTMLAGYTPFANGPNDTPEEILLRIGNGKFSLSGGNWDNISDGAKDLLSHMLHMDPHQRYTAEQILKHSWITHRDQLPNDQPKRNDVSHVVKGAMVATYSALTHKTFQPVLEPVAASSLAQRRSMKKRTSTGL

PRKCQ (human) = PRKCQ (human) (UniProt Q04759); conditions: compound 10.0 µM
Sequence of PRKCQ (human) (Q04759 whole entry, looked up): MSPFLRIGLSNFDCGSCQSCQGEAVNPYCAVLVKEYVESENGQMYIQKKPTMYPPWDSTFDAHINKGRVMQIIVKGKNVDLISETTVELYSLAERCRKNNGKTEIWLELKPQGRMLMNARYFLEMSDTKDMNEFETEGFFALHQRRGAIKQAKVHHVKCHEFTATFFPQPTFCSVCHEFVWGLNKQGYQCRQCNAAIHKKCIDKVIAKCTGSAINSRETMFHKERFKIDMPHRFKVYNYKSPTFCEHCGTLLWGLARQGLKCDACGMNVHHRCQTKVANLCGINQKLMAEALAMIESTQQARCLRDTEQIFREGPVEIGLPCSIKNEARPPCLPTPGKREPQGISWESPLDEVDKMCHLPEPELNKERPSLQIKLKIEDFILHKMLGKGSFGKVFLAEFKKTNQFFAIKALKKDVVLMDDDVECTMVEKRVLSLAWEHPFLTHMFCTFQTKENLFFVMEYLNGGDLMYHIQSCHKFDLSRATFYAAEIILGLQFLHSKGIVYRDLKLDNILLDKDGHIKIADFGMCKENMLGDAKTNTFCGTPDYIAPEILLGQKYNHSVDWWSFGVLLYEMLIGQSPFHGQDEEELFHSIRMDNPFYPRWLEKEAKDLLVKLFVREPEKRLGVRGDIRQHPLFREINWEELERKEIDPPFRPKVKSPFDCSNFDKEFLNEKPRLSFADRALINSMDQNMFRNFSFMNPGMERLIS

PRKCD (human) = PRKCD (human) (UniProt Q05655); conditions: compound 10.0 µM
SGK3 (human) = SGK3 (human) (UniProt Q96BR1); conditions: compound 10.0 µM
RPS6KA2 KD1 (human) = RPS6KA2 KD1 (human) (UniProt Q15349); conditions: compound 10.0 µM
PRKCH (human) = PRKCH (human) (UniProt P24723); conditions: compound 10.0 µM
RPS6KA4 KD1 (human) = RPS6KA4 KD1 (human) (UniProt O75676); conditions: compound 10.0 µM
RPS6KA1 KD1 (human) = RPS6KA1 KD1 (human) (UniProt Q15418); conditions: compound 10.0 µM
AKT1 (human) = AKT1 (human) (UniProt P31749); conditions: compound 10.0 µM
PRKACA (mouse) = conditions: compound 10.0 µM; accession and sequence are those of the human protein
RPS6KA5 KD1 (human) = RPS6KA5 KD1 (human) (UniProt O75582); conditions: compound 10.0 µM
Sequence of RPS6KA5 KD1 (human) (O75582 whole entry, looked up): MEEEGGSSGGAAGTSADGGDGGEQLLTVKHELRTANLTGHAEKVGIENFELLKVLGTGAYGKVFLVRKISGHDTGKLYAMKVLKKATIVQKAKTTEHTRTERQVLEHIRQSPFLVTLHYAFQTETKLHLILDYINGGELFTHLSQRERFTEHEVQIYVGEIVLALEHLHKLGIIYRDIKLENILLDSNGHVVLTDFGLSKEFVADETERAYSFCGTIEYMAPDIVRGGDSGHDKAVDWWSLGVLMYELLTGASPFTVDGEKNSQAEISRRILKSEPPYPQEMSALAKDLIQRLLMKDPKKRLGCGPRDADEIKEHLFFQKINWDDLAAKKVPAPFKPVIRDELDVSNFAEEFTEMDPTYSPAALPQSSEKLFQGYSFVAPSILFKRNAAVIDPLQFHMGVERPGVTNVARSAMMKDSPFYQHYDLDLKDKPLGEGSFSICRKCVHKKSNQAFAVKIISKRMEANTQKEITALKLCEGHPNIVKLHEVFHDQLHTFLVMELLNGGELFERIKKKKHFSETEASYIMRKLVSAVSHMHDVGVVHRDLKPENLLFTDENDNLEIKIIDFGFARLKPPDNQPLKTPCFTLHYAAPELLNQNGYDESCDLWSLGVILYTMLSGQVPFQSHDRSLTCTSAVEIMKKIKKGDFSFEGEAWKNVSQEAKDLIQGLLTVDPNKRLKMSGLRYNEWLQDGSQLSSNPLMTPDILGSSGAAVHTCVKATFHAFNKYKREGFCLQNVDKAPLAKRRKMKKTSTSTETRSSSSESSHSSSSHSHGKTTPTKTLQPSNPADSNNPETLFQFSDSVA

PRKCG (human) = PRKCG (human) (UniProt P05129); conditions: compound 10.0 µM
AURKB (human) = AURKB (human) (UniProt Q96GD4); conditions: compound 10.0 µM
Sequence of AURKB (human) (Q96GD4 whole entry, looked up): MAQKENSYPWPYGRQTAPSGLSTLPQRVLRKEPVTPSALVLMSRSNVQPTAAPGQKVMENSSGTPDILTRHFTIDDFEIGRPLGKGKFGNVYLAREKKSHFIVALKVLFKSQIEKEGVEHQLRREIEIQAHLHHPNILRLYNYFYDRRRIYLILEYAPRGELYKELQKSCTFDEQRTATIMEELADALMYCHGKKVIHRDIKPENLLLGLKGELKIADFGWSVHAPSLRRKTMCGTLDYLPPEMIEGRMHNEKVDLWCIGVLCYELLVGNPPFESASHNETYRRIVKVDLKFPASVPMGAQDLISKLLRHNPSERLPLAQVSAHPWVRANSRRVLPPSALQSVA

AKT3 (human) = AKT3 (human) (UniProt Q9Y243); conditions: compound 10.0 µM
DMPK (human) = DMPK (human) (UniProt Q09013); conditions: compound 10.0 µM
PRKX (human) = PRKX (human) (UniProt P51817); conditions: compound 10.0 µM
Sequence of PRKX (human) (P51817 whole entry, looked up): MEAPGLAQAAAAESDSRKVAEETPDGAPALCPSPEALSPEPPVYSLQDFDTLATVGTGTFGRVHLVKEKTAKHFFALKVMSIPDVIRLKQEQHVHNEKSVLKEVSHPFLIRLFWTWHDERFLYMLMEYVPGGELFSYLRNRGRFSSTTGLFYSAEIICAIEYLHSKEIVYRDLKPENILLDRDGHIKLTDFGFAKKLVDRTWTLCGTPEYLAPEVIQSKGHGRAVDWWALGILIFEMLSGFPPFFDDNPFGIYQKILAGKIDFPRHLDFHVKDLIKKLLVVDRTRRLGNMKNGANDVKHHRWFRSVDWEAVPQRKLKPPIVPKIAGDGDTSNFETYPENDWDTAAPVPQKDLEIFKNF

STK32B (human) = STK32B (human) (UniProt Q9NY57); conditions: compound 10.0 µM
AKT2 (human) = AKT2 (human) (UniProt P31751); conditions: compound 10.0 µM
PRKACB (human) = PRKACB (human) (UniProt P22694); conditions: compound 10.0 µM
PKN1 (human) = PKN1 (human) (UniProt Q16512); conditions: compound 10.0 µM
Sequence of PKN1 (human) (Q16512 whole entry, looked up): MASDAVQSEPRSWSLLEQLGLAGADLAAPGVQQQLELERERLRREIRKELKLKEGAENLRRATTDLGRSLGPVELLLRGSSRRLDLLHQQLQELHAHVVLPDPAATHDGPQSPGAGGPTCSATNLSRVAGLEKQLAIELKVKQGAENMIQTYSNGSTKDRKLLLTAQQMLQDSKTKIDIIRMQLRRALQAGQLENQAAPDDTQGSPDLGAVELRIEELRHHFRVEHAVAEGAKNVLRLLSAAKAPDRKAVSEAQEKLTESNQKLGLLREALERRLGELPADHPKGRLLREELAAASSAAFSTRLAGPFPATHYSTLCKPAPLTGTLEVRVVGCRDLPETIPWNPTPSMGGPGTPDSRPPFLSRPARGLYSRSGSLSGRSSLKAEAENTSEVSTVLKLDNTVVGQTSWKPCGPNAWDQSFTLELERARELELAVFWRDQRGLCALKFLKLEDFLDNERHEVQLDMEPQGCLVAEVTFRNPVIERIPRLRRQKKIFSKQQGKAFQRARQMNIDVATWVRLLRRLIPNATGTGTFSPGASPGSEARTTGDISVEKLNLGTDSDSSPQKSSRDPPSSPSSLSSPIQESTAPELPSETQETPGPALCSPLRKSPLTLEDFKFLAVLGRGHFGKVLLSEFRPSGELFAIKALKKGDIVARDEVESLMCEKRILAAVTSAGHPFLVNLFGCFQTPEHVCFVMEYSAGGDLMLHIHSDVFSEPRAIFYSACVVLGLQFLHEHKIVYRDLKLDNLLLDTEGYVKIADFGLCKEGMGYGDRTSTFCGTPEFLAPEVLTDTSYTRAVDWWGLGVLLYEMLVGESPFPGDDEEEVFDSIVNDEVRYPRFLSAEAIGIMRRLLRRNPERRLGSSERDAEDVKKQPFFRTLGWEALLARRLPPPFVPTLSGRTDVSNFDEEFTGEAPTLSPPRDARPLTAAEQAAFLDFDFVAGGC

PDPK1 (human) = PDPK1 (human) (UniProt O15530); conditions: compound 10.0 µM

Sequence of AURKA (human) (O14965 whole entry, looked up): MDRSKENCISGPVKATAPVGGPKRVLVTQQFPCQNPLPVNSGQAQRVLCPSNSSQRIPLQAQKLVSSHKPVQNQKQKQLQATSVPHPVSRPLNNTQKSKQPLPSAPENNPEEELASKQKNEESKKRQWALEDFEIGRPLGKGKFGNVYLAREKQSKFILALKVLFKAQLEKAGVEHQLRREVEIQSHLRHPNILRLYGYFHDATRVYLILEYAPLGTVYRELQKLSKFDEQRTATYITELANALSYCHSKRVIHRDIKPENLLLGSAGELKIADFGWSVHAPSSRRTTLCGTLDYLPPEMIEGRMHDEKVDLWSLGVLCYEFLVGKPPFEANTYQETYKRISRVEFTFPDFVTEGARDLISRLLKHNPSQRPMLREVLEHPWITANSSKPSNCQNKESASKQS

| SMILES | inhibition (PRKCE (human)) | inhibition (AURKC (human)) | inhibition (AURKA (human)) | inhibition (RPS6KA3 KD1 (human)) | inhibition (SGK2 (human)) | inhibition (PRKCI (human)) | inhibition (RPS6KA6 KD1 (human)) | inhibition (PRKCQ (human)) | inhibition (PRKCD (human)) | inhibition (SGK3 (human)) | inhibition (RPS6KA2 KD1 (human)) | inhibition (PRKCH (human)) | inhibition (RPS6KA4 KD1 (human)) | inhibition (RPS6KA1 KD1 (human)) | inhibition (AKT1 (human)) | inhibition (PRKACA (mouse)) | inhibition (RPS6KA5 KD1 (human)) | inhibition (PRKCG (human)) | inhibition (AURKB (human)) | inhibition (AKT3 (human)) | also measured |
| --- | --- | --- | --- | --- | --- | --- | --- | --- | --- | --- | --- | --- | --- | --- | --- | --- | --- | --- | --- | --- | --- |
| Brc1c(Br)c(Br)c2[nH]nnc2c1Br | 0% | 1% | 6% | 3% | 0% | 0% | 6% | 0% | 0% | 0% | 4% | 0% | 0% | 0% | 0% | 0% | 0% | 0% | 2% | 0% | inhibition (DMPK (human)): 0%; inhibition (PRKX (human)): 2%; inhibition (STK32B (human)): 4%; inhibition (AKT2 (human)): 0%; inhibition (PRKACB (human)): 1%; inhibition (PKN1 (human)): 0%; inhibition (PDPK1 (human)): 0% |
| N#C/C(=C(/N)Sc1ccc(N)cc1)c1ccccc1C(F)(F)F | 0% | 0% | 0% | 0% | 0% | 0% | 0% | 0% | 1% | 4% | 0% | 0% | 0% | 0% | 0% | 2% | 0% | 0% | 1% | 0% | inhibition (DMPK (human)): 0%; inhibition (PRKX (human)): 11%; inhibition (STK32B (human)): 0%; inhibition (AKT2 (human)): 0%; inhibition (PRKACB (human)): 0%; inhibition (PKN1 (human)): 6%; inhibition (PDPK1 (human)): 0% |
| Cc1cc(F)c(Nc2ncnc3cc(OCc4ccccc4)ccc23)cc1O | 6% | 0% | 0% | 0% | 0% | 5% | 0% | 0% | 0% | 0% | 0% | 0% | 0% | 0% | 0% | 2% | 0% | 1% | 1% | 0% | inhibition (DMPK (human)): 0%; inhibition (PRKX (human)): 1%; inhibition (STK32B (human)): 16%; inhibition (AKT2 (human)): 0%; inhibition (PRKACB (human)): 0%; inhibition (PKN1 (human)): 0%; inhibition (PDPK1 (human)): 2% |
| N#C/C(=C\c1ccc(O)c(O)c1)C(N)=S | 0% | 0% | 1% | 0% | 0% | 0% | 0% | 0% | 0% | 0% | 0% | 0% | 0% | 0% | 0% | 4% | 0% | 0% | 0% | 0% | inhibition (DMPK (human)): 0%; inhibition (PRKX (human)): 0%; inhibition (STK32B (human)): 1%; inhibition (AKT2 (human)): 0%; inhibition (PRKACB (human)): 0%; inhibition (PKN1 (human)): 5%; inhibition (PDPK1 (human)): 0% |
| CC[C@@H](CO)Nc1nc(NCc2ccccc2)c2ncn(C(C)C)c2n1 | 0% | 0% | 0% | 0% | 0% | 0% | 0% | 0% | 2% | 0% | 0% | 0% | 0% | 20% | 0% | 0% | 0% | 0% | 0% | 0% | inhibition (DMPK (human)): 0%; inhibition (PRKX (human)): 0%; inhibition (STK32B (human)): 0%; inhibition (AKT2 (human)): 0%; inhibition (PRKACB (human)): 0%; inhibition (PKN1 (human)): 0%; inhibition (PDPK1 (human)): 0% |
| Cc1cc(I)ccc1Nc1c(C(=O)NOCC2CC2)cc(F)c(F)c1F | 9% | 0% | 0% | 0% | 0% | 0% | 0% | 1% | 0% | 2% | 0% | 0% | 0% | 6% | 0% | 0% | 0% | 12% | 4% | 0% | inhibition (DMPK (human)): 20%; inhibition (PRKX (human)): 6%; inhibition (STK32B (human)): 0%; inhibition (AKT2 (human)): 0%; inhibition (PRKACB (human)): 0%; inhibition (PKN1 (human)): 0%; inhibition (PDPK1 (human)): 0% |

Reference: the kinase profiling compilation of Christmann-Franck et al. (2016)
